From publication PMC9112895, “Selective Inhibition of Plasmodium falciparum ATPase 6 by Artemisinins and Identification of New Classes of Inhibitors after Expression in Yeast” (Antimicrobial Agents and Chemotherapy, 2022)

How the values were obtained:
[1] = target: T1, SERCA1a (Oryctolagus cuniculus, UniProt P04191); experiment: Yeast whole-cell growth inhibition assay, K667Δpdr5[SERCA1a]; assay type: cell-based, rabbit; set-up: containing the SERCA1a coding region from rabbit skeletal fast-twitch muscle; expressed in transfected cells; host or cells: Saccharomyces cerevisiae K667 and K667Δpdr5::HIS
Protocol: (§1) Yeast transformations were performed using the method described by Gietz and Schiestl ([48]), and transformants were selected by an uracil auxotrophic marker. Transformations were confirmed by colony PCR. Both K667 and K667Δpdr5::HIS were transformed with the following plasmids: pUGpd plasmid as a vector-only control (derived from pRS316 [49]); br434 plasmid (derived from pRS316 [50]) containing the SERCA1a coding region from rabbit skeletal fast-twitch muscle (pbr434-SERCA1a); and pUGpd containing the yeast-optimized coding region of PfATP6 from Plasmodium falciparum (pUGpd-PfATP6). Site-directed mutagenesis was performed on the SERCA1a coding region to produce the mutation E255L in the protein. Mutations were also introduced into the PfATP6 coding region to produce mutations L263E, A623E, and S769N and the double mutation A623E/S769N ([13]).
(§2) The screening assay used here was developed from the protocol used by Pulcini et al. ([13]). A single colony of the yeast strain to be screened was picked and grown in 5 mL of selective medium until stationary phase was reached. The culture was diluted 100-fold in ampicillin-supplemented yeast extract-peptone-dextrose (YPD) medium to an OD at 620 nm (OD620) equivalent to that of lag phase. YPD medium was supplemented with an appropriate concentration of calcium, depending on the transformed strain. The optimal calcium concentration for the PfATP6-expressing strain was 22 mM, and that for the SERCA1a-expressing strain was […]. The optimal calcium concentration was periodically monitored and, if necessary, adjusted using a calcium concentration range of 10 to 30 mM. A final volume of 200 μL of the yeast culture was added to each well of a 96-well plate, with 5 technical replicates included per inhibitor. All inhibitors were dissolved in dimethyl sulfoxide (DMSO) unless otherwise stated. […] The yeast growth was estimated from the absorbance at 620 nm in a Tecan plate reader. […] The data collected were analyzed using GraphPad Prism v9.0 (GraphPad software, San Diego, CA, U.S.A).

[2] = system: K667Δpdr5::pUGpd; experiment: Yeast whole-cell growth inhibition, vector-only control K667Δpdr5::pUGpd; assay type: cell-based, Saccharomyces cerevisiae; conditions: compound screen
Protocol: The screening assay used here was developed from the protocol used by Pulcini et al. ([13]). A single colony of the yeast strain to be screened was picked and grown in 5 mL of selective medium until stationary phase was reached. The culture was diluted 100-fold in ampicillin-supplemented yeast extract-peptone-dextrose (YPD) medium to an OD at 620 nm (OD620) equivalent to that of lag phase. YPD medium was supplemented with an appropriate concentration of calcium, depending on the transformed strain. The optimal calcium concentration for the PfATP6-expressing strain was 22 mM, and that for the SERCA1a-expressing strain was […]. The optimal calcium concentration was periodically monitored and, if necessary, adjusted using a calcium concentration range of 10 to 30 mM. A final volume of 200 μL of the yeast culture was added to each well of a 96-well plate, with 5 technical replicates included per inhibitor. All inhibitors were dissolved in dimethyl sulfoxide (DMSO) unless otherwise stated. Stock solutions of each inhibitor were diluted 100-fold in each well to give the desired final concentration. […] The 96-well plates were incubated at 30°C for 42 h. The yeast growth was estimated from the absorbance at 620 nm in a Tecan plate reader. […] The data collected were analyzed using GraphPad Prism v9.0 (GraphPad software, San Diego, CA, U.S.A).

[3] = target: PfATP6 (Plasmodium falciparum, UniProt Q08853); experiment: cell-based; assay type: cell-based; set-up: pUGpd containing the yeast-optimized coding region of PfATP6 from Plasmodium falciparum; expressed in transfected cells; host or cells: Saccharomyces cerevisiae K667 and K667Δpdr5::HIS; conditions: growth inhibition, K667Δpdr5[PfATP6]
Protocol: The screening assay used here was developed from the protocol used by Pulcini et al. ([13]). A single colony of the yeast strain to be screened was picked and grown in 5 mL of selective medium until stationary phase was reached. The culture was diluted 100-fold in ampicillin-supplemented yeast extract-peptone-dextrose (YPD) medium to an OD at 620 nm (OD620) equivalent to that of lag phase. YPD medium was supplemented with an appropriate concentration of calcium, depending on the transformed strain. […] The optimal calcium concentration was periodically monitored and, if necessary, adjusted using a calcium concentration range of 10 to 30 mM. A final volume of 200 μL of the yeast culture was added to each well of a 96-well plate, with 5 technical replicates included per inhibitor. All inhibitors were dissolved in dimethyl sulfoxide (DMSO) unless otherwise stated. […] The 96-well plates were incubated at 30°C for 42 h. The yeast growth was estimated from the absorbance at 620 nm in a Tecan plate reader. Growth was normalized with the no-drug control to present data as percent growth. The data collected were analyzed using GraphPad Prism v9.0 (GraphPad software, San Diego, CA, U.S.A).

[4] = target: T2, E255LSERCA1a (Oryctolagus cuniculus, UniProt P04191, E255L); experiment: Yeast whole-cell growth inhibition assay, K667Δpdr5[SERCA1a]255L; assay type: cell-based, rabbit
T2 construct: expressed in transfected cells; host or cells: Saccharomyces cerevisiae K667Δpdr5
Protocol: The E255L mutation was introduced into SERCA1a using the following primers: forward, 5′-[…]-3′; reverse, 5′-[…]-3′. Site-directed mutagenesis was performed using the Agilent Quikchange Lightning site-directed mutagenesis kit, following the manufacturer’s instructions. Mutants were screened by Sanger sequencing (Eurofins, UK).
as §2, with “mM.” for “mM. A final volume of 200 μL of the yeast culture was added to each well of a 96-well plate, with 5 technical replicates included per inhibitor. All inhibitors were dissolved in dimethyl sulfoxide (DMSO) unless otherwise stated.”

[5] = target: T1, SERCA1a; experiment: Yeast whole-cell growth inhibition assay, K667::SERCA1a; assay type: cell-based, rabbit; set-up: containing the SERCA1a coding region from rabbit skeletal fast-twitch muscle; expressed in transfected cells; host or cells: Saccharomyces cerevisiae K667 and K667Δpdr5::HIS; conditions: measured at 40 h
Protocol: as §1
The screening assay used here was developed from the protocol used by Pulcini et al. ([13]). […] The optimal calcium concentration was periodically monitored and, if necessary, adjusted using a calcium concentration range of 10 to 30 mM. […] The yeast growth was estimated from the absorbance at 620 nm in a Tecan plate reader. […] The data collected were analyzed using GraphPad Prism v9.0 (GraphPad software, San Diego, CA, U.S.A).

T1 sequence (P04191 other isoform, or with tags, fused parts or gaps): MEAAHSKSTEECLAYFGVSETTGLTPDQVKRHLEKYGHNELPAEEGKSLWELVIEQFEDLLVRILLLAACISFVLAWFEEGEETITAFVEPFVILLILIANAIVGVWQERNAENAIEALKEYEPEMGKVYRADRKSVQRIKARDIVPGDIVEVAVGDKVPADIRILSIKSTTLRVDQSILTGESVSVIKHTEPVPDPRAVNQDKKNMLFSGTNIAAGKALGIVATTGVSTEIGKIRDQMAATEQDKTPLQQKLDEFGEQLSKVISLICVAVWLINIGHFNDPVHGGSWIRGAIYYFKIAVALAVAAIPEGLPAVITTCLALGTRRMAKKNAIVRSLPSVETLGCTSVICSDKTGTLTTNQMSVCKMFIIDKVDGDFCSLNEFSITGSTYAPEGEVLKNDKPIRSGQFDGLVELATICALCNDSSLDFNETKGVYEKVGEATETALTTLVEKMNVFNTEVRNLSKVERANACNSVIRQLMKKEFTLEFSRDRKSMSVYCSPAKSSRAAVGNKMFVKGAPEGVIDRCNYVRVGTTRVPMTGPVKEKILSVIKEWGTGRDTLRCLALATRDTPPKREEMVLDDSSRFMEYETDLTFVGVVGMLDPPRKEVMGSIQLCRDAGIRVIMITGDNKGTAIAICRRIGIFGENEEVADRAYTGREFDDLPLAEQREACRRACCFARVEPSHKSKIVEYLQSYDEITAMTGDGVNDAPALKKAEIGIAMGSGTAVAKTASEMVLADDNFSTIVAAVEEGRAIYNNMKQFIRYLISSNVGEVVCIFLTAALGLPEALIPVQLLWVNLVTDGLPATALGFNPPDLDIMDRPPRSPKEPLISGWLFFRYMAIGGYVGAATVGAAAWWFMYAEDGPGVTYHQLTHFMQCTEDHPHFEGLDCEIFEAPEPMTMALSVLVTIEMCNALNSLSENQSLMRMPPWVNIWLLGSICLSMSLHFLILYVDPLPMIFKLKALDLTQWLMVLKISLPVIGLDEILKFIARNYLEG
T2 sequence (P04191 other isoform, or with tags, fused parts or gaps E255L): as the sequence (P04191 other isoform, or with tags, fused parts or gaps) above, with E255L counted along it
Sequence of PfATP6 (Q08853 whole entry): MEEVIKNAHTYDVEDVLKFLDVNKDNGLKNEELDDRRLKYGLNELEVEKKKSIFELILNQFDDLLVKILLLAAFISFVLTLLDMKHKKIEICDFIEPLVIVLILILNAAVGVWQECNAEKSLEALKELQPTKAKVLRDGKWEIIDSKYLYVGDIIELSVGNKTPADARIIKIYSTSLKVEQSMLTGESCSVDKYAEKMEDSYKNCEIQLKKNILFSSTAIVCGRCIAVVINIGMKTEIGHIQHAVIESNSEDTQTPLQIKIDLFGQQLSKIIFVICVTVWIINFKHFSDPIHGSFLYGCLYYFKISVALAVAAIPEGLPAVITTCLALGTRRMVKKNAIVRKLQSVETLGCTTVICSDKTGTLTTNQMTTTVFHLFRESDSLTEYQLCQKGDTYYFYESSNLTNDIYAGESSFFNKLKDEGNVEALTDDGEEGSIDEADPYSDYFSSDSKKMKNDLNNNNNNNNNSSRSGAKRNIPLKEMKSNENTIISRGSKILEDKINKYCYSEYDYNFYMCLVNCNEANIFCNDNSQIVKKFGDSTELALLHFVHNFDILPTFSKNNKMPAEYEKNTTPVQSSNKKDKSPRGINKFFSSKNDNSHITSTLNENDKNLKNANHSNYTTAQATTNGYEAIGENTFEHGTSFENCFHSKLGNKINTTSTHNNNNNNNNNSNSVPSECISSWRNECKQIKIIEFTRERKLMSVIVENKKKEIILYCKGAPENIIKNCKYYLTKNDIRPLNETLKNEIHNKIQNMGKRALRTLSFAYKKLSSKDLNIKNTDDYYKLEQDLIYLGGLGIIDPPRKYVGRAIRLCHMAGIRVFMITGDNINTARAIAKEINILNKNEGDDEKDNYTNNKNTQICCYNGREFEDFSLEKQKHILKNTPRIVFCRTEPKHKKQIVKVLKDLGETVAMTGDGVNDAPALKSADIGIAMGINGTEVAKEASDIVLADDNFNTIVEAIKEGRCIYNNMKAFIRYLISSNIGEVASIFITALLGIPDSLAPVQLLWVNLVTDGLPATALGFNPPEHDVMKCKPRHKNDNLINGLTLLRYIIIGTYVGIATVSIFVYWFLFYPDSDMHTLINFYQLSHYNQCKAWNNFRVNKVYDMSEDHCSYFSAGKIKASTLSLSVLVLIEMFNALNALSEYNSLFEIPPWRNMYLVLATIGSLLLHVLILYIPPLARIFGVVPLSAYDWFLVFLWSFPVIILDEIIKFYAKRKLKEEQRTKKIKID

Structure (SMILES)	inhibition of control strain K667Δpdr5::SERCA1a ([1]; compound screen)	inhibition of control strain K667Δpdr5::pUGpd [2]	inhibition of PfATP6 in compound screen [3]	fold lower IC50 in K667DPDR5::SERCA1a than in K667::SERCA1a [1]	IC50 ([1]; K667DPDR5::SERCA1a (wild-type E255), measured at 40 h)	IC50 [4]	fold less sensitive, E255LSERCA1a versus wild-type [4]	IC50 [5]
O=C(Nc1cccc(C(F)(F)F)c1)c1cc(Cl)ccc1O [MMV665807]	almost no inhibition	almost no inhibition	highest reproducible potency	–	–	–	–	–
C/C=C(/C)C(=O)O[C@H]1C(C)=C2[C@H]([C@@H]1OC(=O)CCCCCCC)[C@@](C)(OC(C)=O)C[C@H](OC(=O)CCC)[C@@]1(O)[C@H]2OC(=O)[C@@]1(C)O [thapsigargin]	–	–	–	> 2 fold	142 ± 43.9 nM	794 ± 247 nM	5 fold	335 ± 67.5 nM
